# In patent US20220356174A1, “PYRIDIN-2-ONE COMPOUNDS USEFUL AS SMARCA2 ANTAGONISTS” (Epizyme, Inc., priority 2018, published 2022):
# Read-outs that look alike come from different tables or passages of the source.
# Experiments:
# FL-SMARCA4 = FL-SMARCA4 (Homo sapiens, UniProt P51532); test: SMARCA4 ATPase activity assay (ADP-Glo, chicken mononucleosome substrate)
# [1] = target: T1, FL-SMARCA2 (full-length human SMARCA2 isoform 1) (Homo sapiens, UniProt P51531); test: SMARCA2 ATPase activity assay (ADP-Glo, chicken mononucleosome substrate); assay type: biochemical; details: ATP 250 uM
# T1 construct: FLAG tag (YKDDDDK) (C); made in house; host or cells: Sf21 insect cells (baculovirus, pFastBacI)
# Excerpt: Molecular Biology: Full-length human SMARCA2 isoform 1 (P51531) transcript clone was amplified from a cDNA library incorporating an N-terminal HIS tag ([…]) fused directly to Ser2 of SMARCA2 and a C-FLAG tag (YKDDDDK) fused directly to Glu1590 of SMARCA2. The amplified gene was subcloned into pFastBacI (Life Technologies).
# Protein Expression: Recombinant baculovirus were generated and protein over-expression was accomplished by infecting exponentially growing Sf21 insect cell culture at 1.24×10^6 cell/ml with an MOI of 0.1. Infections were carried out for 76 hours, harvested by centrifugation, and stored at −80° C. for purification.
# Expressed full-length SMARCA2 was purified from cell paste by FLAG affinity chromatography followed by anion exchange chromatography. The protein was dialyzed into a storage buffer containing 25 mM HEPES, 300 mM KCl, 10% Glycerol, pH 7.9, 1 mM TCEP and 0.01% Tween-20. The purity of the protein was measured as 74% using micro-capillary based gel electrophoresis.
# [2] = Table 3d.1, ATPase assay, enzyme 5 nM, chicken mononucleosome 10 nM, 30 min preincubation, read-out: FL-SMARCA2 IC>50
# [3] = FL-SMARCA4 IC50, Table 3a.2, SMARCA4 5 nM, ATP 250 uM, mononucleosome 10 nM
# [4] = Table 3a.1, SMARCA2 5 nM, mononucleosome 10 nM
# [5] = FL-SMARCA4 IC>50, Table 3c.2, ATPase assay, enzyme 5 nM, ATP 250 uM, chicken mononucleosome 10 nM, 30 min preincubation
# [6] = Table 3c.1, ATPase assay, enzyme 5 nM, chicken mononucleosome 10 nM, 30 min preincubation
# [7] = FL-SMARCA4 IC50, Table 3.2, ATPase assay, enzyme 5 nM, ATP 250 uM, chicken mononucleosome 10 nM, 30 min preincubation
# [8] = Table 3.1, ATPase assay, enzyme 5 nM, chicken mononucleosome 10 nM, 30 min preincubation
# T1 sequence (P51531 with tags, fused parts or gaps): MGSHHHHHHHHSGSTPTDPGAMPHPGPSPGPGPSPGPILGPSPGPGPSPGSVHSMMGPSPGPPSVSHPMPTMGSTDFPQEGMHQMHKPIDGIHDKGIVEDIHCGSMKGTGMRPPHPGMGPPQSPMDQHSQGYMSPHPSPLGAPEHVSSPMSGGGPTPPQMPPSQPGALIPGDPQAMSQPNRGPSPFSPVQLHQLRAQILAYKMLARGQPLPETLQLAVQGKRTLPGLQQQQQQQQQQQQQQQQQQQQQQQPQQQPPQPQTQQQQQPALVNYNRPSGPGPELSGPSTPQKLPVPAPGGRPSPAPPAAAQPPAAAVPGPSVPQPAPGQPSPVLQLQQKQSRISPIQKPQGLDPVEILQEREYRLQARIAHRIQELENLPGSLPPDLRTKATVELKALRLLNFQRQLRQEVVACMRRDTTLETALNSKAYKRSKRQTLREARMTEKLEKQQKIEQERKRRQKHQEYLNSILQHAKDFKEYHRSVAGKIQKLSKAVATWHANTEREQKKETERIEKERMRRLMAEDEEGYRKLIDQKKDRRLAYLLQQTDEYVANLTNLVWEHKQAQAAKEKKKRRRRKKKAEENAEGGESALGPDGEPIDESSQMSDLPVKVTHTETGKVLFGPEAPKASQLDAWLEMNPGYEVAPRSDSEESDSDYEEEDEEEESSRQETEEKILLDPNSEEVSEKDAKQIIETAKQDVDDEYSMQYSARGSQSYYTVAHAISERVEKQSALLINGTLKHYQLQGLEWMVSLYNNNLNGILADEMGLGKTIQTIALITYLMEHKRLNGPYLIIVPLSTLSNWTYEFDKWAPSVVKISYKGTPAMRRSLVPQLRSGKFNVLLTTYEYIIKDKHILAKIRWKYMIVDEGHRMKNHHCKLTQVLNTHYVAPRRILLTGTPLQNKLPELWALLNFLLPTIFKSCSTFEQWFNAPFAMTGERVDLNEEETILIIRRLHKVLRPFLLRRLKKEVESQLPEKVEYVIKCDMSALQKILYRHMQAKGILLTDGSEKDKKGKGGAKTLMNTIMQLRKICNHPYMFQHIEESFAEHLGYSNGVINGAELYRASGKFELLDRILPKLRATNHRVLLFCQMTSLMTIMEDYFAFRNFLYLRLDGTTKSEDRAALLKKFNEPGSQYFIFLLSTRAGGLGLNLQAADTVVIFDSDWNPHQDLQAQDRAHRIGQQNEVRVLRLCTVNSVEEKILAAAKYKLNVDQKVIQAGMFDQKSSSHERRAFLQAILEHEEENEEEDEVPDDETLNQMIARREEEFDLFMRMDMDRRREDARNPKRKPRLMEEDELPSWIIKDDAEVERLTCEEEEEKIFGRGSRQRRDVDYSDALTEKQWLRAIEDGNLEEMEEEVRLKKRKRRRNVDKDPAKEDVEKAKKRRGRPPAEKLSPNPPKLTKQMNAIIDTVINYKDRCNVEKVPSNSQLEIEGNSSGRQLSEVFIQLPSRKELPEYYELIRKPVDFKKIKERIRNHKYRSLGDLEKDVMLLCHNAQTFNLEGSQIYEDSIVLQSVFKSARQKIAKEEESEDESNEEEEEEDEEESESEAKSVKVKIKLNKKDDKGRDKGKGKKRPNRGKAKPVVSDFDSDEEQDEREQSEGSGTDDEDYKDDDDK
# Sequence of FL-SMARCA4 (P51532 whole entry, canonical isoform): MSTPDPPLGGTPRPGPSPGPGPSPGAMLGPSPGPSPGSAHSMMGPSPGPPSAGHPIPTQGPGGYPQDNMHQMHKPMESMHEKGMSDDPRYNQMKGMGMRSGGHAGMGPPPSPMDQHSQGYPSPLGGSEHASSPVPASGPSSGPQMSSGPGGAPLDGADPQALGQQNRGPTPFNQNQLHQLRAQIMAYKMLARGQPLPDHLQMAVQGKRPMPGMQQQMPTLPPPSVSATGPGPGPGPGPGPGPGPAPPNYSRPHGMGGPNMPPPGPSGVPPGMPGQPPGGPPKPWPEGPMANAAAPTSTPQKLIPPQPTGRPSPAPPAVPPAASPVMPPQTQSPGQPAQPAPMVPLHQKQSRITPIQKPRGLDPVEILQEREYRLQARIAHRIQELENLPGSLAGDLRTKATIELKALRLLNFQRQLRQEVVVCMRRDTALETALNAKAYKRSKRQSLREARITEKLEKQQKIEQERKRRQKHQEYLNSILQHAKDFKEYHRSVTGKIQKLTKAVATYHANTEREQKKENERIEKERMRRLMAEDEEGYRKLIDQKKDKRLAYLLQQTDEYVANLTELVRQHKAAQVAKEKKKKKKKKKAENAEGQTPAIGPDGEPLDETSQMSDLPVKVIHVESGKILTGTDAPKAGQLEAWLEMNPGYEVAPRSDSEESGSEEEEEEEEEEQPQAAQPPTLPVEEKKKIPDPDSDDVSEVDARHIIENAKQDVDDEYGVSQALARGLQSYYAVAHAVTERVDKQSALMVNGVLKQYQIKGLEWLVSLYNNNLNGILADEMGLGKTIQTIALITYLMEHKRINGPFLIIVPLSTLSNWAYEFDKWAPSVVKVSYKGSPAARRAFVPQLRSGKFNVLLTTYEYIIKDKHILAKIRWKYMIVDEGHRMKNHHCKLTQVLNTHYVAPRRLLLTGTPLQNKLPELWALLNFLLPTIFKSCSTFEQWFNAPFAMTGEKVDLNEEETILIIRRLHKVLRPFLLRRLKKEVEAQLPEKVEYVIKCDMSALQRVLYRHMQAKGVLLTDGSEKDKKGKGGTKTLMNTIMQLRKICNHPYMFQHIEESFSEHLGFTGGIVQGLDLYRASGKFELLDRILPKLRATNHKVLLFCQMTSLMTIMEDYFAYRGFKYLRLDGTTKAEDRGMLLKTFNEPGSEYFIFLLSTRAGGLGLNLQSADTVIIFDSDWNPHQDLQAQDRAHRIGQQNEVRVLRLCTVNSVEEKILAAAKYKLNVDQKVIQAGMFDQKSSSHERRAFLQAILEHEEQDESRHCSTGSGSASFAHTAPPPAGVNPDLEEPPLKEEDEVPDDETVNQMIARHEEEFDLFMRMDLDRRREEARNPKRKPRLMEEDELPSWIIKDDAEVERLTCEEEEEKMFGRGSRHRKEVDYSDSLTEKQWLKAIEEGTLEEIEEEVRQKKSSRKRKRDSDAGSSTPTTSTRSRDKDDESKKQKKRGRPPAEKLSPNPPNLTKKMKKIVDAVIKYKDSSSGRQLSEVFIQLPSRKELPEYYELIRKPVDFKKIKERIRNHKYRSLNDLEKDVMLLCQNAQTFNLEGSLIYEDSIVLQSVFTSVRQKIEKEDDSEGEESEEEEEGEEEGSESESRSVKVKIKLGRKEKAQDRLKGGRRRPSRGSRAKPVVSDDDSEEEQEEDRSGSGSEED
smiles,measurement,setting,value
CCn1c(Cl)c(NC(=O)c2cc(Cl)c(Cl)s2)ccc1=O [Compound 27d],IC50,FL-SMARCA4; FL-SMARCA4 IC50,> 50 µM
same,IC50,[1]; [2],> 50 µM
CCn1cc(NC(=O)c2cccc(C)n2)ccc1=O [Compound 28a],IC50,FL-SMARCA4; [3],> 50 µM
same,IC50,[1]; [4],> 50 µM
NCCCn1cc(NC(=O)c2cc(F)c(Cl)s2)cc(F)c1=O [Compound 28c],IC50,FL-SMARCA4; [5],> 50 µM
same,IC50,[1]; [6],> 50 µM
CCc1cc(=O)n(CC)cc1NC(=O)c1cc(Cl)c(Cl)s1 [Compound 28d],IC50,FL-SMARCA4; FL-SMARCA4 IC50,> 50 µM
same,IC50,[1]; [2],> 50 µM
CCn1cc(NC(=O)c2cnc3c(Cl)cccn23)ccc1=O [Compound 29a],IC50,FL-SMARCA4; [3],> 50 µM
same,IC50,[1]; [4],> 50 µM
CN1CCC(C#Cc2cc(C(=O)Nc3cc(F)c(=O)n(CC(F)F)c3)sc2Cl)CC1 [Compound 29c],IC50,FL-SMARCA4; [5],41.4 µM
same,IC50,[1]; [6],25.4 µM
CCn1c(F)c(NC(=O)c2cc(Cl)c(Cl)s2)ccc1=O [Compound 29d],IC50,FL-SMARCA4; FL-SMARCA4 IC50,> 50 µM
same,IC50,[1]; [2],> 50 µM
CCn1cc(NC(=O)c2ccccn2)ccc1=O [Compound 30a],IC50,FL-SMARCA4; [3],> 50 µM
same,IC50,[1]; [4],> 50 µM
O=C(Nc1cc(-c2ncco2)c(=O)n(CC(F)F)c1)c1sc(C(F)(F)F)cc1Cl [Compound 30c],IC50,FL-SMARCA4; [5],> 50 µM
same,IC50,[1]; [6],> 50 µM
CCc1c(NC(=O)c2cc(Cl)c(Cl)s2)ccc(=O)n1CC [Compound 30d],IC50,FL-SMARCA4; FL-SMARCA4 IC50,> 50 µM
same,IC50,[1]; [2],> 50 µM
CCn1cc(NC(=O)n2ncc3ccccc32)ccc1=O [Compound 31a],IC50,FL-SMARCA4; [3],> 50 µM
same,IC50,[1]; [4],> 50 µM
O=C(Nc1cc(-c2c[nH]cn2)c(=O)n(CC(F)F)c1)c1sc(C(F)(F)F)cc1Cl [Compound 31c],IC50,FL-SMARCA4; [5],> 50 µM
same,IC50,[1]; [6],> 50 µM
CCn1cc(NC(=O)c2cc(Cl)c(Cl)s2)c(F)cc1=O [Compound 31d],IC50,FL-SMARCA4; FL-SMARCA4 IC50,> 50 µM
same,IC50,[1]; [2],48.1 µM
CCn1nc(C(=O)Nc2ccc(=O)n(CC)c2)cc1C [Compound 32],IC50,FL-SMARCA4; [7],> 50 µM
same,IC50,[1]; [8],> 50 µM
CCn1cc(NC(=O)c2nc3cc(Cl)c(F)cc3[nH]2)ccc1=O [Compound 32a],IC50,FL-SMARCA4; [3],> 50 µM
same,IC50,[1]; [4],> 50 µM
NCCn1cc(NC(=O)c2cc(F)c(Cl)s2)cc(F)c1=O [Compound 32c],IC50,FL-SMARCA4; [5],12.5 µM
same,IC50,[1]; [6],5.67 µM
Cc1cc(=O)[nH]cc1NC(=O)c1ccc(C(F)(F)F)nc1C [Compound 32d],IC50,FL-SMARCA4; FL-SMARCA4 IC50,> 50 µM
same,IC50,[1]; [2],> 50 µM
CCn1cc(NC(=O)c2cc(C)sc2C)ccc1=O [Compound 33],IC50,FL-SMARCA4; [7],> 50 µM
same,IC50,[1]; [8],> 50 µM
CCn1cc(NC(=O)c2ccc(Cl)c(Cl)n2)ccc1=O [Compound 33a],IC50,FL-SMARCA4; [3],> 50 µM
same,IC50,[1]; [4],> 50 µM
O=C(Nc1cc(F)c(=O)n(CC(F)F)c1)c1cnc(C#Cc2ccncc2)s1 [Compound 33c],IC50,FL-SMARCA4; [5],8.15 µM
same,IC50,[1]; [6],8.9 µM
Cc1nc(-c2ccc(C(=O)Nc3cc(F)c(=O)n(CC(F)F)c3)s2)cs1 [Compound 33d],IC50,FL-SMARCA4; FL-SMARCA4 IC50,> 50 µM
same,IC50,[1]; [2],> 50 µM
CCn1cc(NC(=O)c2cc3c(n2C)CCC3)ccc1=O [Compound 34a],IC50,FL-SMARCA4; [3],> 50 µM
same,IC50,[1]; [4],> 50 µM
O=C(Nc1cc(F)c(=O)n(CC(F)F)c1)c1ccc(-c2ccccn2)s1 [Compound 34d],IC50,FL-SMARCA4; FL-SMARCA4 IC50,> 50 µM
same,IC50,[1]; [2],> 50 µM
CCn1cc(NC(=O)c2coc(Br)n2)ccc1=O [Compound 35],IC50,FL-SMARCA4; [7],> 50 µM
same,IC50,[1]; [8],> 50 µM
CCn1cc(NC(=O)c2ccc(Cl)c(C)n2)ccc1=O [Compound 35a],IC50,FL-SMARCA4; [3],> 50 µM
same,IC50,[1]; [4],> 50 µM
NC(=O)c1cc(C(=O)Nc2cc(F)c(=O)n(CC(F)F)c2)sc1C(F)(F)F [Compound 35d],IC50,FL-SMARCA4; FL-SMARCA4 IC50,> 50 µM
same,IC50,[1]; [2],> 50 µM
CCn1cc(NC(=O)c2nc(Br)sc2C)ccc1=O [Compound 36],IC50,FL-SMARCA4; [7],> 50 µM
same,IC50,[1]; [8],> 50 µM
CCn1cc(NC(=O)c2cc3ccccc3s2)ccc1=O [Compound 36a],IC50,FL-SMARCA4; [3],> 50 µM
same,IC50,[1]; [4],> 50 µM
O=C(Nc1cc(F)c(=O)n(CC(F)F)c1)c1cc(C2COC2)cs1 [Compound 36c],IC50,FL-SMARCA4; [5],> 50 µM
same,IC50,[1]; [6],> 50 µM
CN(C)C(=O)c1cc(C(=O)Nc2cc(F)c(=O)n(CC(F)F)c2)sc1C(F)(F)F [Compound 36d],IC50,FL-SMARCA4; FL-SMARCA4 IC50,> 50 µM
same,IC50,[1]; [2],36.5 µM
Cn1c(C(=O)Nc2ccc(=O)[nH]c2)cc(Cl)c1Cl [Compound 37],IC50,FL-SMARCA4; [7],> 50 µM
same,IC50,[1]; [8],> 50 µM
CCn1cc(NC(=O)c2ccc3c(n2)OCO3)ccc1=O [Compound 37a],IC50,FL-SMARCA4; [3],> 50 µM
same,IC50,[1]; [4],> 50 µM
